From patent US7649001B2
Changes are numbered by the printed parent chain.

What was measured:
[1] = system: Human prostate cancer cell strain LNCaP-FGC; test: cells; type: cell-based; conditions: 72 h, read-out: Promotion rate (%) on PSA production at 100 nM
[2] = biological target: T1, LNCaP type mutant androgen receptor (AR) (Homo sapiens, UniProt P10275, T878A); test: AR-binding inhibition test (LNCaP type); conditions: read-out: Inhibition rate (%) at 100 nM LNCaP type
T1 sequence (P10275 1-920 T878A): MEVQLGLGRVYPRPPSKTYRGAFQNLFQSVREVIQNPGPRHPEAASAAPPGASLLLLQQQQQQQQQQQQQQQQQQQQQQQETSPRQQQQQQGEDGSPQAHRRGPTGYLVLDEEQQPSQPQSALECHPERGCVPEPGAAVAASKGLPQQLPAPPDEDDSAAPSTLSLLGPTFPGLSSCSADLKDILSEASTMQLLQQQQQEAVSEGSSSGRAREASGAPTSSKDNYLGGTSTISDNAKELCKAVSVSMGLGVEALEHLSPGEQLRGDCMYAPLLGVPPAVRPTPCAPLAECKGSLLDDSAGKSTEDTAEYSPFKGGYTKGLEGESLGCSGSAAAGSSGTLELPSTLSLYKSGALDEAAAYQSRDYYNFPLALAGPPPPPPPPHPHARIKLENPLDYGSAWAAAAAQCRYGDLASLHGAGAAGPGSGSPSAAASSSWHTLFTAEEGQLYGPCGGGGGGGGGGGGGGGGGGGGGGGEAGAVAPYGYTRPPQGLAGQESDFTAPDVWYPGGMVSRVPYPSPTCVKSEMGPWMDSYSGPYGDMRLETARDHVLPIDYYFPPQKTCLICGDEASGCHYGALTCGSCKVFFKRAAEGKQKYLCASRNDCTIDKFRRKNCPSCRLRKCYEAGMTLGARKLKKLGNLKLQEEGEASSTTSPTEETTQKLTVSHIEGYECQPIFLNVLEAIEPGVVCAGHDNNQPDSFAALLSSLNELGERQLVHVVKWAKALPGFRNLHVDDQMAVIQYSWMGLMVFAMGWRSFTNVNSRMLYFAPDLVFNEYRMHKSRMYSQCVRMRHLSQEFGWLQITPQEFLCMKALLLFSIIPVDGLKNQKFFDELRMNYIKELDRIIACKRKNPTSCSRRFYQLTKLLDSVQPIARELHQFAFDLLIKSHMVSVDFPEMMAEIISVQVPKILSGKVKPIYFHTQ

[3] = biological target: T2, wild type androgen receptor (AR) (Homo sapiens, UniProt P10275); test: AR-binding inhibition test (wild type); conditions: read-out: Inhibition rate (%) at 100 nM Wild type
T2 sequence (P10275 1-920): T1 sequence (P10275 1-920 T878A) with A878T

SMILES	melting point [°C]	activation at 0.1 µM [1] [%]	inhibition at 0.1 µM [2] [%]	inhibition at 0.1 µM [3] [%]
N#Cc1ccc(N2CCC(CO)CC2)c2ccccc12 [Compound 30, 4-[4-(hydroxymethyl)-1-piperidinyl]-1-naphthonitrile]	135 to 136	100	113	105
N#Cc1ccc(N2CCC(CCO)CC2)c2ccccc12 [Compound 78, 4-[4-(2-hydroxyethyl)-1-piperidinyl]-1-naphthonitrile]	128 to 129	89	97	92
N#Cc1ccc(N2CCC(F)C2)c2ccsc12 (stereo not drawn) [Compound 100, 4-(3-fluoro-1-pyrrolidinyl)-1-benzothiophene-7-carbonitrile]	151 to 152	82	92	97
N#Cc1ccc(N2CCC(CCO)C2)c2ccsc12 (stereo not drawn) [Compound 101, 4-[3-(2-hydroxyethyl)-1-pyrrolidinyl]-1-benzothiophene-7-carbonitrile]	109 to 111	86	97	93
C[C@H]1C[C@@H](O)CN1c1ccc(C#N)c2sccc12 [Compound 109, 4-[(2S,4R)-4-hydroxy-2-methyl-1-pyrrolidinyl]-1-benzothiophene-7-carbonitrile]	102 to 103	86	99	98
C[C@H]1[C@H](O)CCN1c1ccc(C#N)c2sccc12 [Compound 115, 4-[(2S,3R)-3-hydroxy-2-methyl-1-pyrrolidinyl]-1-benzothiophene-7-carbonitrile]	145 to 146	76	97	93
